Data published in patent US8648066B2 (Exelixis, Inc., priority 2009, dated 2014).

Target: mTOR/GbL/Raptor (mTORC1) (Homo sapiens, UniProt P42345)
Experiment: mTOR/GbL/Raptor (mTORC1) ELISA assay
Format: biochemical
Conditions: phosphorylation of 4E-BP1; 0.2 nM mTORC1, 10 μM ATP; read-out: IC50 in this assay (mTORC1 ELISA)
Procedure, shortened: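 Human mTORC1 (0.2 nM) phosphorylated 50 nM His-tagged 4E-BP1 with 10 µM ATP in HEPES pH 7.2 containing 10 mM MnCl2, 120 min at ambient temperature. Substrate was captured on Ni-chelate plates; phospho-4E-BP1 was detected by primary antibody and HRP secondary with luminescence.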

SMILES | IC50
Cc1ncnc(N2CCOc3ccc(-c4cncs4)cc3C2)c1Cc1ccc(F)cc1 [Example 150, 4-{5-[(4-fluorrophenyl)methyl]-6-methylpyrimidin-4-yl}-7-(1,3-thiazol-5-yl)-2,3,4,5-tetrahydro-1,4-benzoxazepine] | 50 to 250 nM
COc1ccccc1Cc1c(C)ncnc1N1CCOc2ccc(-c3ccc4nc(C)[nH]c4c3)cc2C1 [Example 84, 7-(2-methyl-1H-benzimidazol-6-yl)-4-(6-methyl-5-{[2-(methyloxy)phenyl]methyl}pyrimidin-4-yl)-2,3,4,5-tetrahydro-1,4-benzoxazepine] | 10 to 50 nM
CCN(CC)Cc1nc(C)c(C(C)C)c(N2CCOc3ccc(-c4ccc5nc(C)[nH]c5c4)cc3C2)n1 [Example 685, N-ethyl-N-({4-methyl-6-[7-(2-methyl-1H-benzimidazol-5-yl)-2,3-dihydro-1,4-benzoxazepin-4(5H)-yl]-5-(1-methylethyl)pyrimidin-2-yl}methyl)ethanamine] | 50 to 250 nM
Cc1nc2ccc(-c3ccc4c(c3)CN(c3ncnc(C)c3Cc3cc(F)cc(Cl)c3)CCO4)cc2[nH]1 [Example 83, 4-{5-[(3-chloro-5-fluorophenyl)methyl]-6-methylpyrimidin-4-yl}-7-(2-methyl-1H-benzimidazol-6-yl)-2,3,4,5-tetrahydro-1,4-benzoxazepine] | ≤ 10 nM
CC1(C)CCc2ncnc(N3CCOc4ccc(-c5cnc(N)c(S(=O)(=O)N[C@@H]6CCNC6)c5)cc4C3)c2C1 [Example 387, 2-amino-5-[4-(6,6-dimethyl-5,6,7,8-tetrahydroquinazolin-4-yl)-2,3,4,5-tetrahydro-1,4-benzoxazepin-7-yl]-N-[(3R)-pyrrolidin-3-yl]pyridine-3-sulfonamide] | ≤ 10 nM
Cc1nc2ncc(-c3ccc4c(c3)CN(c3ncnc(N5CCN(C)CC5)c3C)CCO4)cc2[nH]1 [Example 563, 7-(2-methyl-1H-imidazo[4,5-b]pyridin-6-yl)-4-[5-methyl-6-(4-methylpiperazin-1-yl)pyrimidin-4-yl]-2,3,4,5-tetrahydro-1,4-benzoxazepine] | 250 to 1000 nM
CC[C@H]1CCc2c(nc(CN(C)C)nc2N2CCOc3ccc(-c4cnc5nc(C)[nH]c5c4)cc3C2)C1 [Example 334, 1-{(7S)-7-ethyl-4-[7-(2-methyl-1H-imidazo[4,5-b]pyridin-6-yl)-2,3-dihydro-1,4-benzoxazepin-4(5H)-yl]-5,6,7,8-tetrahydroquinazolin-2-yl}-N,N-dimethylmethanamine] | 10 to 50 nM
Cc1nc2ccc(-c3ccc4c(c3)CN(c3cc(C(C)C)ncn3)CCO4)cc2[nH]1 [Example 59, 7-(2-methyl-1H-benzimidazol-6-yl)-4-[6-(1-methylethyl)pyrimidin-4-yl]-2,3,4,5-tetrahydro-1,4-benzoxazepine] | 50 to 250 nM
Cc1nc2ccc(-c3ccc4c(c3)CN(c3ncnc5ccc(O)cc35)CCO4)cc2[nH]1 [Example 158, 4-[7-(2-methyl-1H-benzimidazol-6-yl)-2,3-dihydro-1,4-benzoxazepin-4(5H)-yl]quinazolin-6-ol] | 10 to 50 nM
Cc1c(NCC2CCN(C)CC2)ncnc1N1CCOc2ccc(-c3cnc4nc(C5CC5)[nH]c4c3)cc2C1 [Example 533, 6-[7-(2-cyclopropyl-1H-imidazo[4,5-b]pyridin-6-yl)-2,3-dihydro-1,4-benzoxazepin-4(5H)-yl]-5-methyl-N-[(1-methylpiperidin-4-yl)methyl]pyrimidin-4-amine] | ≥ 2000 nM
COc1cc2c(N3CCOc4ccc(-c5ccc6nc(C)[nH]c6c5)cc4C3)ncnc2c(OC)c1OC [Example 57, 7-(2-methyl-1H-benzimidazol-6-yl)-4-[6,7,8-tris(methyloxy)quinazolin-4-tris(methyloxy)quinazolin-4-yl]-2,3,4,5-tetrahydro-1,4-benzoxazepine] | ≥ 2000 nM
CN(c1cc(-c2ccc3c(c2)CN(c2ncnc4c2CC(C)(C)CC4)CCO3)cnc1Cl)S(C)(=O)=O [Example 624, N-{2-chloro-5-[4-(6,6-dimethyl-5,6,7,8-tetrahydroquinazolin-4-yl)-2,3,4,5-tetrahydro-1,4-benzoxazepin-7-yl]pyridin-3-yl}-N-methylmethanesulfonamide] | 250 to 1000 nM
CCN(Cc1nc2c(c(N3CCOc4ccc(-c5cnc6nc(C)[nH]c6c5)cc4C3)n1)CC(C)(C)CC2)C(C)C [Example 603, N-({6,6-dimethyl-4-[7-(2-methyl-1H-imidazo[4,5-b]pyridin-6-yl)-2,3-dihydro-1,4-benzoxazepin-4(5H)-yl]-5,6,7,8-tetrahydroquinazolin-2-yl}methyl)-N-ethylpropan-2-amine] | 50 to 250 nM
CC1(C)CCc2ncnc(N3CCOc4ccc(-c5cnc(N)c(S(=O)(=O)N6CCC(O)C6)c5)cc4C3)c2C1 (stereo not drawn) [Example 318] | 10 to 50 nM
Cc1nc2ccc(-c3ccc4c(c3)CN(c3ncnc5c3CC(C)(C)CC5)CCO4)cc2[nH]1 [Example 65, 4-(6,6-dimethyl-5,6,7,8-tetrahydroquinazolin-4-yl)-7-(2-methyl-1H-benzimidazol-6-yl)-2,3,4,5-tetrahydro-1,4-benzoxazepine] | ≤ 10 nM
Cc1c(NC2CCOCC2)ncnc1N1CCOc2ccc(-c3cnc4nc(C5CC5)[nH]c4c3)cc2C1 [Example 532, 6-[7-(2-cyclopropyl-1H-imidazo[4,5-b]pyridin-6-yl)-2,3-dihydro-1,4-benzoxazepin-4(5H)-yl]-5-methyl-N-(tetrahydro-2H-pyran-4-yl)pyrimidin-4-amine] | 250 to 1000 nM
COC(=O)Nc1nc2ccc(-c3ccc4c(c3)CN(c3ncnc5cc(OC)c(OC)cc35)CCO4)cc2[nH]1 [Example 111, methyl (6-{4-[6,7-bis(methyloxy)quinazolin-4-yl]-2,3,4,5-tetrahydro-1,4-benzoxazepin-7-yl}-1H-benzimidazol-2-yl)carbamate] | 1000 to 2000 nM
Cc1nc2cc(-c3ccc4c(c3)CN(c3nc(CN(C)C)nc5c3CC(C)(C)CC5)CCO4)c(F)cc2[nH]1 [Example 342, 1-{4-[7-(6-fluoro-2-methyl-1H-benzimidazol-5-yl)-2,3-dihydro-1,4-benzoxazepin-4(5H)-yl]-6,6-dimethyl-5,6,7,8-tetrahydroquinazolin-2-yl}-N,N-dimethylmethanamine] | 250 to 1000 nM
CNCc1nc2ncc(-c3ccc4c(c3)CN(c3ncnc5c3CC(C)(C)CC5)CCO4)cc2[nH]1 [Example 358, 1-{6-[4-(6,6-dimethyl-5,6,7,8-tetrahydroquinazolin-4-yl)-2,3,4,5-tetrahydro-1,4-benzoxazepin-7-yl]-1H-imidazo[4,5-b]pyridin-2-yl}-N-methylmethanamine] | 10 to 50 nM
CCOc1ncc(-c2ccc3c(c2)CN(c2ncnc4c2CC(C)(C)CC4)CCO3)cc1NS(C)(=O)=O [Example 626, N-{5-[4-(6,6-dimethyl-5,6,7,8-tetrahydroquinazolin-4-yl)-2,3,4,5-tetrahydro-1,4-benzoxazepin-7-yl]-2-(ethyloxy)pyridin-3-yl}methanesulfonamide] | 10 to 50 nM
Cc1nc2ccc(-c3ccc4c(c3)CN(c3ncnc5sccc35)CCO4)cc2[nH]1 [Example 45, 7-(2-methyl-1H-benzimidazol-6-yl)-4-thieno[2,3-d]pyrimidin-4-yl-2,3,4,5-tetrahydro-1,4-benzoxazepine] | 250 to 1000 nM
Cc1nc2ncc(-c3ccc4c(c3)CN(c3ncnc5c3CCC(C(C)O)C5)CCO4)cc2[nH]1 (stereo not drawn) [Example 340, 1-{4-[7-(2-methyl-1H-imidazo[4,5-b]pyridin-6-yl)-2,3-dihydro-1,4-benzoxazepin-4(5H)-yl]-5,6,7,8-tetrahydroquinazolin-7-yl}ethanol] | 50 to 250 nM
CC1(C)CCc2ncnc(N3CCOc4ccc(-c5cnc(N)c(S(=O)(=O)N6CC7CNCC7C6)c5)cc4C3)c2C1 (stereo not drawn) [Example 511, 5-[4-(6,6-dimethyl-5,6,7,8-tetrahydroquinazolin-4-yl)-2,3,4,5-tetrahydro-1,4-benzoxazepin-7-yl]-3-(hexahydropyrrolo[3,4-c]pyrrol-2(1H)-ylsulfonyl)pyridin-2-amine] | 50 to 250 nM
Cc1nc2ncc(-c3ccc4c(c3)CN(c3ncnc(C)c3Br)CCO4)cc2[nH]1 [Example 468, 4-(5-bromo-6-methylpyrimidin-4-yl)-7-(2-methyl-1H-imidazao[4,5-b]pyridin-6-yl)-2,3,4,5-tetrahydro-1,4-benzoxazepine] | 50 to 250 nM
Cc1nc2cc(-c3ccc4c(c3)CN(c3ncnc5c3CC3(CC5)CC3)CCO4)cnc2[nH]1 [Example 502] | ≤ 10 nM
CC1(C)CCc2ncnc(N3CCOc4ccc(-c5cnc6nc(N)[nH]c6c5)cc4C3)c2C1 [Example 177, 6-[4-(6,6-dimethyl-5,6,7,8-tetrahydroquinazolin-4-yl)-2,3,4,5-tetrahydro-1,4-benzoxazepin-7-yl]-1H-imidazo[4,5-b]pyridin-2-amine] | ≤ 10 nM
CC[C@H]1CCc2c(ncnc2N2CCOc3ccc(-c4cnc5nc(N)[nH]c5c4)cc3C2)C1 [Example 537, 6-{4-[(7S)-7-ethyl-5,6,7,8-tetrahydroquinazolin-4-yl]-2,3,4,5-tetrahydro-1,4-benzoxazepin-7-yl}-1H-imidazo[4,5-b]pyridin-2-amine] | ≤ 10 nM
CN(C)Cc1nc2c(c(N3CCOc4ccc(-c5ccc6scnc6c5)cc4C3)n1)CC(C)(C)CC2 [Example 337, 1-{4-[7-(1,3-benzothiazol-5-yl)-2,3-dihydro-1,4-benzoxazepin-4(5H)-yl]-6,6-dimethyl-5,6,7,8-tetrahydroquinazolin-2-yl}-N,N-dimethylmethanamine] | 250 to 1000 nM
Cc1nc2ncc(-c3ccc4c(c3)CN(c3ncnc5c3CC(C)CC5)CCO4)cc2[nH]1 (stereo not drawn) [Example 555, 7-(2-methyl-1H-imidazo[4,5-b]pyridin-6-yl)-4-(6-methyl-5,6,7,8-tetrahydroquinazolin-4-yl)-2,3,4,5-tetrahydro-1,4-benzoxazepine] | ≤ 10 nM
COC(=O)Nc1nc2ccc(-c3ccc4c(c3)CN(c3ncnc5ccc(OC)cc35)CCO4)cc2[nH]1 [Example 112, methyl (6-{4-[6-(methyloxy)quinazolin-4-yl]-2,3,4,5-tetrahydro-1,4-benzoxazepin-7-yl}-1H-benzimidazol-2-yl)carbamate] | 250 to 1000 nM
